What was measured:
[1] = system: 59 human cancer cell lines; experiment: NCI one-dose screen, whole panel; type: cell-based; conditions: Homo sapiens, mean over the panel, read-out: Mean Growth Percent
Protocol: (§1) For screening of anticancer properties, all the developed compounds were chosen by the (NCI) for in-vitro antitumor evaluation. The assay was carried out using 59 human cancer cell lines obtained from nine tumour subpanels (breast, ovarian, melanoma, leukaemia, renal, CNS, lung, prostate, and colon cancer cell lines). Compounds were assessed at a 10 µM concentration. […] Also, hybrids 4a, 4b, 4e, 4i and 4j produced significant anti-proliferative effect in several cancer cells, particularly in leukaemia (RPMI-8226) and colon (HCT116) cells with growth percent of 47.87, −14.59, −24.56, −24.42, −15.84, −9.74, −53.36, −10.26, −31.29, and −39.51%, respectively.
(§2) The method description for NCI anticancer screening is provided in detail in the standard NCI-60 testing protocol.

SN12C = experiment: NCI one-dose screen; type: cell-based; conditions: Homo sapiens, read-out: Growth Percent
Procedure, shortened: (§3)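 The NCI ran this in vitro antitumor screen on 59 human cancer lines from nine tissue subpanels, with each compound applied once at 10 µM. Growth percent is reported.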

SK-MEL-5 = experiment: NCI one-dose screen; type: cell-based; conditions: Homo sapiens; SK-MEL-5, 10 µM; read-out: Growth Percent
Procedure, shortened: as §3

SK-OV-3 = experiment: NCI one-dose screen; type: cell-based; conditions: Homo sapiens; SK-OV-3, 10 µM; read-out: Growth Percent
Procedure, shortened: as §3

MDA-MB-231/ATCC = experiment: NCI one-dose screen; type: cell-based; conditions: Homo sapiens, read-out: Growth Percent
Procedure, shortened: as §3

M14 = experiment: NCI one-dose screen; type: cell-based; conditions: Homo sapiens; M14, 10 µM; read-out: Growth Percent
Procedure, shortened: as §3

TK-10 = experiment: NCI one-dose screen; type: cell-based; conditions: Homo sapiens; TK-10, 10 µM; read-out: Growth Percent
Procedure, shortened: as §3

UO-31 = experiment: NCI one-dose screen; type: cell-based; conditions: Homo sapiens; UO-31, 10 µM; read-out: Growth Percent
Procedure, shortened: as §3

OVCAR-4 = experiment: NCI one-dose screen; type: cell-based; conditions: Homo sapiens; OVCAR-4, 10 µM; read-out: Growth Percent
Procedure, shortened: as §3

SF-295 = experiment: NCI one-dose screen; type: cell-based; conditions: Homo sapiens; SF-295, 10 µM; read-out: Growth Percent
Procedure, shortened: as §3

CAKI-1 = experiment: NCI one-dose screen; type: cell-based; conditions: Homo sapiens; CAKI-1, 10 µM; read-out: Growth Percent
Procedure, shortened: as §3

HL-60(TB) = experiment: NCI one-dose screen; type: cell-based; conditions: Homo sapiens, read-out: Growth Percent
NCI-H23 = experiment: NCI one-dose screen; type: cell-based; conditions: Homo sapiens; NCI-H23, 10 µM; read-out: Growth Percent
Procedure, shortened: as §3

EKVX = experiment: NCI one-dose screen; type: cell-based; conditions: Homo sapiens, read-out: Growth Percent
Procedure, shortened: as §3

MOLT-4 = experiment: NCI one-dose screen; type: cell-based; conditions: Homo sapiens; MOLT-4, 10 µM; read-out: Growth Percent
Procedure, shortened: as §3

NCI-H460 = experiment: NCI one-dose screen; type: cell-based; conditions: Homo sapiens; NCI-H460, 10 µM; read-out: Growth Percent
Procedure, shortened: as §3

HT29 = experiment: NCI one-dose screen; type: cell-based; conditions: Homo sapiens, HT-29; HT29, 10 µM; read-out: Growth Percent
Procedure, shortened: as §3

CCRF-CEM = experiment: NCI one-dose screen; type: cell-based; conditions: Homo sapiens, read-out: Growth Percent
Procedure, shortened: as §3

SNB-19 = experiment: NCI one-dose screen; type: cell-based; conditions: Homo sapiens; SNB-19, 10 µM; read-out: Growth Percent
Procedure, shortened: as §3

A498 = experiment: NCI one-dose screen; type: cell-based; conditions: Homo sapiens; A498, 10 µM; read-out: Growth Percent
Procedure, shortened: as §3

SF-539 = experiment: NCI one-dose screen; type: cell-based; conditions: Homo sapiens; SF-539, 10 µM; read-out: Growth Percent
Procedure, shortened: as §3

K-562 = experiment: NCI one-dose screen; type: cell-based; conditions: Homo sapiens, K562; K-562, 10 µM; read-out: Growth Percent
Procedure, shortened: as §3

KM12 = experiment: NCI one-dose screen; type: cell-based; conditions: Homo sapiens; KM12, 10 µM; read-out: Growth Percent
Procedure, shortened: as §3

COLO 205 = experiment: NCI one-dose screen; type: cell-based; conditions: Homo sapiens; COLO 205, 10 µM; read-out: Growth Percent
Procedure, shortened: as §3

DU-145 = experiment: NCI one-dose screen; type: cell-based; conditions: Homo sapiens; DU-145, 10 µM; read-out: Growth Percent
Procedure, shortened: as §3

RPMI-8226 = experiment: NCI one-dose screen; type: cell-based, human; conditions: RPMI-8226, 10 µM; for activity at 10 µM: Homo sapiens, read-out: Growth Percent
Protocol: as §1, §2

HCT-116 = experiment: NCI one-dose screen; type: cell-based, human; conditions: HCT-116, 10 µM; for activity at 10 µM: Homo sapiens, read-out: Growth Percent
Protocol: as §1, §2

SMILES | activity at 10 µM [1] [%] | activity at 10 µM (SN12C) [%] | activity at 10 µM (SK-MEL-5) [%] | activity at 10 µM (SK-OV-3) [%] | activity at 10 µM (MDA-MB-231/ATCC) [%] | activity at 10 µM (M14) [%] | activity at 10 µM (TK-10) [%] | activity at 10 µM (UO-31) [%] | activity at 10 µM (OVCAR-4) [%] | activity at 10 µM (SF-295) [%] | activity at 10 µM (CAKI-1) [%] | activity at 10 µM (HL-60(TB)) [%] | activity at 10 µM (NCI-H23) [%] | activity at 10 µM (EKVX) [%] | activity at 10 µM (MOLT-4) [%] | activity at 10 µM (NCI-H460) [%] | activity at 10 µM (HT29) [%] | activity at 10 µM (CCRF-CEM) [%] | activity at 10 µM (SNB-19) [%] | activity at 10 µM (A498) [%] | other results
O=C(/C=C/c1ccccc1)c1ccc(-n2cc(CN3CCN(c4cc5c(cc4F)c(=O)c(C(=O)O)cn5C4CC4)CC3)nn2)cc1 [Compound 4a, (E) 7-(4-((1–(4-Cinnamoylphenyl)-1H-1,2,3-triazol-4-yl)methyl)piperazin-1-yl)-1-cyclopropyl-6-fluoro-4-oxo-1,4-dihydroquinoline-3-carboxylic acid] | 87.8 | 103 | 84.3 | 84.9 | 97.1 | 90.1 | 103 | 63.1 | 102 | 95.9 | 87.8 | 99 | 83.5 | 88.5 | 102 | 91.2 | 90.8 | 111 | 98.2 | 76.7 | activity at 10 µM (SF-539): 92.6%; activity at 10 µM (K-562): 101%; activity at 10 µM (KM12): 84.9%; activity at 10 µM (COLO 205): 110%; activity at 10 µM (DU-145): 104%; activity at 10 µM (RPMI-8226): 47.9%; Growth Percent (HCT-116): -9.74%; activity at 10 µM (HCT-116): -9.74%
O=C(/C=C/c1cccc(Cl)c1)c1ccc(-n2cc(CN3CCN(c4cc5c(cc4F)c(=O)c(C(=O)O)cn5C4CC4)CC3)nn2)cc1 [Compound 4b, (E)-7-(4-((1–(4-(3-(3-chlorophenyl)acryloyl)phenyl)-1H-1,2,3-triazol-4-yl)methyl)piperazin-1-yl)-1-cyclopropyl-6-fluoro-4-oxo-1,4-dihydroquinoline-3-carboxylic acid] | 65 | 37.6 | 78.7 | 72.3 | 73.6 | 79 | 84.9 | 52.6 | 62.9 | 80.2 | 52.5 | 90.3 | 91.4 | 85 | 68.2 | 66.7 | 53.3 | 29.9 | 53.8 | 70.8 | activity at 10 µM (SF-539): 60.1%; activity at 10 µM (K-562): 40.5%; activity at 10 µM (KM12): 29.9%; activity at 10 µM (COLO 205): 106%; activity at 10 µM (DU-145): 77.5%; activity at 10 µM (RPMI-8226): -14.6%; Growth Percent (RPMI-8226): -14.59%; Growth Percent (HCT-116): -53.36%; activity at 10 µM (HCT-116): -53.4%
O=C(/C=C/c1ccc(Cl)cc1)c1ccc(-n2cc(CN3CCN(c4cc5c(cc4F)c(=O)c(C(=O)O)cn5C4CC4)CC3)nn2)cc1 [Compound 4c, (E)-7-(4-((1-(4-(3-(4-chlorophenyl)acryloyl)phenyl)-1H-1,2,3-triazol-4-yl)methyl)piperazin-1-yl)-1-cyclopropyl-6-fluoro-4-oxo-1,4-dihydroquinoline-3-carboxylic acid] | 73.9 | 45.8 | 77.6 | 80 | 89.4 | 84.4 | 83.3 | 62.5 | 89.7 | 91.7 | 61.4 | 99.1 | 79.7 | 94 | 84.1 | 76.1 | 79.2 | 64.9 | 72 | 52.2 | activity at 10 µM (SF-539): 69%; activity at 10 µM (K-562): 56%; activity at 10 µM (KM12): 73.7%; activity at 10 µM (COLO 205): 108%; activity at 10 µM (DU-145): 76.3%; activity at 10 µM (RPMI-8226): -0.51%; activity at 10 µM (HCT-116): 6.95%
O=C(/C=C/c1ccc(Br)cc1)c1ccc(-n2cc(CN3CCN(c4cc5c(cc4F)c(=O)c(C(=O)O)cn5C4CC4)CC3)nn2)cc1 [Compound 4d, (E)-7-(4-((1-(4-(3-(4-bromophenyl)acryloyl)phenyl)-1H-1,2,3-triazol-4-yl)methyl)piperazin-1-yl)-1-cyclopropyl-6-fluoro-4-oxo-1,4-dihydroquinoline-3-carboxylic acid] | 77.4 | 58.8 | 79.7 | 79 | 66.4 | 88.1 | 97.8 | 65.4 | 96.7 | 81.9 | 68.7 | 98.8 | 77.6 | 80.8 | 80.4 | 85.9 | 99.2 | 34.6 | 76.7 | 34.9 | activity at 10 µM (SF-539): 82.5%; activity at 10 µM (K-562): 60.7%; activity at 10 µM (KM12): 87.1%; activity at 10 µM (COLO 205): 112%; activity at 10 µM (DU-145): 92.3%; activity at 10 µM (RPMI-8226): 6.02%; activity at 10 µM (HCT-116): 17.3%
O=C(/C=C/c1ccc(F)cc1)c1ccc(-n2cc(CN3CCN(c4cc5c(cc4F)c(=O)c(C(=O)O)cn5C4CC4)CC3)nn2)cc1 [Compound 4e, (E)-1-cyclopropyl-6-fluoro-7–(4-((1–(4-(3-(4-fluorophenyl)acryloyl)phenyl)-1H-1,2,3-triazol-4-yl)methyl)piperazin-1-yl)-4-oxo-1,4-dihydroquinoline-3-carboxylic acid] | 53.9 | 8.77 | 79 | 71.6 | 65.3 | 60.9 | 85.2 | 62.8 | 93.1 | 81.2 | 36.9 | 84.6 | 80.3 | 87.5 | 31.8 | 32.5 | 28 | 20 | 31.6 | 61.1 | activity at 10 µM (SF-539): 27.9%; activity at 10 µM (K-562): 21.9%; activity at 10 µM (KM12): 32.9%; activity at 10 µM (COLO 205): 105%; activity at 10 µM (DU-145): 51.6%; activity at 10 µM (RPMI-8226): -24.6%; Growth Percent (RPMI-8226): -24.56%; Growth Percent (HCT-116): -10.26%; activity at 10 µM (HCT-116): -10.3%
